Assay results from patent US20200377496A1, “INDOLE AND BENZIMIDAZOLE DERIVATIVES AS DUAL 5-HT2A and 5-HT6 RECEPTOR ANTAGONISTS” (ADAMED PHARMA, S.A., priority 2018, published 2020).
Read-outs that look alike come from different tables or passages of the source.

Columns and labels:
human 5-HT2A receptor = human 5-HT2A receptor (Homo sapiens, UniProt P28223); test: 5-HT2A receptor binding assay ([3H]-ketanserin radioligand)
Protocol: (§1) Preparation of Solutions of Test and Reference Compounds.
(§2) 1 mM stock solutions of tested compounds were prepared in DMSO. Serial dilutions of compounds were prepared in 96-well microplate in assay buffers using automated pipetting system epMotion 5070 (Eppendorf). Each compound was tested in 10 concentrations from 1.0E-6 to 1.0E-11 M (final concentration).
5-HT2A Receptor Binding Assay.
Radioligand binding was performed using membranes from CHO K1 cells stably transfected with the human 5-HT2A receptor (PerkinElmer). All assays were carried out in duplicates. 50 μl working solution of the tested compounds, 50 μl [3H]-ketanserin (final concentration 1 nM) and 150 μl diluted membranes (7 μg protein per well) prepared in assay buffer (50 mM Tris, pH 7.4, 4 mM CaCl2, 0.1% ascorbic acid) were transferred to polypropylene 96-well microplate using 96-wells pipetting station Rainin Liquidator (MettlerToledo). Mianserin (10 μM) was used to define nonspecific binding. Microplate was covered with a sealing tape, mixed and incubated for 60 minutes at 27° C. The reaction was terminated by rapid filtration through GF/B filter mate presoaked with 0.5% polyethyleneimine for 30 minutes. Ten rapid washes with 200 μl 50 mM Tris buffer (4° C., pH 7.4) were performed using automated harvester system Harvester-96 MACH III FM (Tomtec). The filter mates were dried at 37° C. in forced air fan incubator and then solid scintilator MeltiLex was melted on filter mates at 90° C. for 5 minutes. Radioactivity was counted in MicroBeta2 scintillation counter (PerkinElmer). Data were fitted to a one-site curve-fitting equation with Prism 6 (GraphPad Software) and Ki values were estimated from the Cheng-Prusoff equation.

5-HT6 receptors [1] = molecular target: T1, 5-HT6 receptors (Homo sapiens, UniProt P50406); test: 5-HT6 receptor binding assay ([3H]-LSD radioligand); conditions: membranes from CHO-K1 cells with human 5-HT6 receptor, [3H]-LSD 1 nM
T1 sequence (P50406 whole entry): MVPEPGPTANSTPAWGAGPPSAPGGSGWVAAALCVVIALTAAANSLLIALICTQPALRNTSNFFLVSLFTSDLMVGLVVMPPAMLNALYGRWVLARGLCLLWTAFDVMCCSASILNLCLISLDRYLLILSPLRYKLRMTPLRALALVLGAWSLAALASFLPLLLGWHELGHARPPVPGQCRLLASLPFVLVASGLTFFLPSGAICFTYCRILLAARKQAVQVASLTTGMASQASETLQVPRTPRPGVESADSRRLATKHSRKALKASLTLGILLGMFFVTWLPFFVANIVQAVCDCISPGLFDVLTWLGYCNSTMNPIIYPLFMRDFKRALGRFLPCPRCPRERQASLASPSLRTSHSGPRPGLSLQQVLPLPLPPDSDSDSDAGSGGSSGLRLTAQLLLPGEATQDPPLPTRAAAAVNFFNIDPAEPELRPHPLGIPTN
Protocol: as §1, §2
5-HT6 Receptor Binding Assay.
Radioligand binding was performed using membranes from CHO-K1 cells stably transfected with the human 5-HT6 receptor (PerkinElmer). All assays were carried out in duplicates. 50 μl working solution of the tested compounds, 50 μl [3H]-LSD (final concentration 1 nM) and 150 μl diluted membranes (8 μg protein per well) prepared in assay buffer (50 mM Tris, pH 7.4, 10 mM MgCl2, 0.1 mM EDTA) were transferred to polypropylene 96 well microplate using 96-wells pipetting station Rainin Liquidator (MettlerToledo). Methiothepin (10 μM) was used to define nonspecific binding. Microplate was covered with a sealing tape, mixed and incubated for 60 minutes at 37° C. The reaction was terminated by rapid filtration through GF/A filter mate presoaked with 0.5% polyethyleneimine for 30 minutes. Ten rapid washes with 200 μl 50 mM Tris buffer (4° C., pH 7.4) were performed using automated harvester system Harvester-96 MACH III FM (Tomtec). The filter mates were dried at 37° C. in forced air fan incubator and then solid scintilator MeltiLex was melted on filter mates at 90° C. for 5 minutes. Radioactivity was counted in MicroBeta2 scintillation counter (PerkinElmer). Data were fitted to a one-site curve-fitting equation with Prism 6 (GraphPad Software) and Ki values were estimated from the Cheng-Prusoff equation.

human GPCR 5-HT6 = human GPCR 5-HT6 (Homo sapiens, UniProt P50406); test: Cellular aequorin-based functional assay, 5-HT6; format: cell-based; conditions: for 5-HT6 AGO EC50 [nM]: agonist mode, CHO-K1 aequorin cells; for Kb: antagonist mode, reference agonist serotonin 40 nM (EC80), read-out: 5-HT6 ANT Kb
Chain of human GPCR 5-HT6 (P50406 whole entry): as above
Protocol: as §1
(§3) 1 mM stock solutions of the tested compounds were prepared in DMSO. Serial dilutions were prepared in 96-well microplate in assay buffers using automated pipetting system epMotion 5070 (Eppendorf). Two independent experiments in duplicates were performed and 6 to 10 concentrations were tested.
(§4) 5-HT2A and 5-HT6 Functional Activity Assays.
(§5) Cellular aequorin-based functional assays were performed with γ-irradiated recombinant CHO-K1 cells expressing mitochondrially-targeted Aequorin, human GPCR (5-HT2A or 5-HT6) and the promiscuous G protein α16 (PerkinElemer). Assays were performed according to the standard protocol provided by the manufacturer. After thawing, cells were transferred to assay buffer (DMEM/HAM's F12 with 0.1% protease-free BSA) and centrifuged. Cell pellet was resuspended in assay buffer and coelenterazine h was added at final concentrations of 5 μM. Cell suspension was incubated at 21° C., protected from light with constant agitation, for 4 hours and then diluted with assay buffer to a concentration of 250,000 cells/ml. After 1 hour incubation 50 yl cell suspension was dispensed using automatic injectors built in radiometric and luminescence plate counter MicroBeta2 LumiJET (PerkinElmer, USA) into white opaque 96-well microplate preloaded with tested compounds. Immediate light emission generated following calcium mobilization was recorded for 30-60 seconds. In antagonist mode, after 15-30 minutes incubation reference agonist was added to the above assay mix and light emission was recorded again. Final concentration of reference agonist was equal EC80: serotonin 40 nM for 5-HT6 receptor and α-methylserotonin 30 nM for 5-HT2A receptor. The assays were performed in the agonist mode (5-HT6 AGO and 5-HT2A AGO) as well as antagonist mode (5-HT6 ANT and 5-HT2A ANT).
(§6) IC50 and EC50 were determined by non-linear regression analysis using GraphPad Prism 6.0 software. The log IC50 was used to obtain the Kb by applying the Cheng-Prusoff approximation.

human GPCR 5-HT2A = human GPCR 5-HT2A (Homo sapiens, UniProt P28223); test: Cellular aequorin-based functional assay, 5-HT2A; format: cell-based; conditions: for 5-HT2A AGO EC50 [nM]: agonist mode, CHO-K1 aequorin cells
Chain of human GPCR 5-HT2A (P28223 whole entry): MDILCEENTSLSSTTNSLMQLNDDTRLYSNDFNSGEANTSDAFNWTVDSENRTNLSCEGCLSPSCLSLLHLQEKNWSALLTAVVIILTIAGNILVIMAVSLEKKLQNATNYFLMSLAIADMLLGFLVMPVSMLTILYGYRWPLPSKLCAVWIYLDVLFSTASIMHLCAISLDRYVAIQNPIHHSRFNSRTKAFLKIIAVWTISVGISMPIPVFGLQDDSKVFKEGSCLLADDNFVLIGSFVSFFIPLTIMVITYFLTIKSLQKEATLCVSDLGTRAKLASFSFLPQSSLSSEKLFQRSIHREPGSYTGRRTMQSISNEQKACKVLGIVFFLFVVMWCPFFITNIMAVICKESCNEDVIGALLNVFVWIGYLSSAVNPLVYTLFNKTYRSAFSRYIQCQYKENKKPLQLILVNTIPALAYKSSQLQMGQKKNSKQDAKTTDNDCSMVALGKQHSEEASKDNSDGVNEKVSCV
Protocol: as §1, §3, §4, §5, §6

5-HT6 receptors [2] = molecular target: T1, 5-HT6 receptors; conditions: cited from earlier work
[3] = membranes from CHO K1 cells with human 5-HT2A receptor, [3H]-ketanserin 1 nM, read-out: 5-HT2A Ki
[4] = antagonist mode, reference agonist α-methylserotonin 30 nM (EC80), read-out: 5-HT2A ANT Kb

Chain of human 5-HT2A receptor (P28223 whole entry): as above

SMILES | Ki (human 5-HT2A receptor) | Ki (5-HT6 receptors [1]) | 5-HT6 AGO EC50 [nM] (human GPCR 5-HT6) | Kb (human GPCR 5-HT6) | Kb (human GPCR 5-HT2A) | 5-HT2A AGO EC50 [nM] (human GPCR 5-HT2A) | Ki (human 5-HT2A receptor; [3]) | Kb (human GPCR 5-HT2A; [4]) | affinity for the 5-HT6 receptors (5-HT6 receptors [2])
Cc1ccc(Cn2c(C(F)(F)F)cc3c(N4CCNCC4)cccc32)s1 [Compound 29, 1-[(5-methylthiophen-2-yl)methyl]-4-(piperazin-1-yl)-2-(trifluoromethyl)-1H-indole] | 0.37 nM | 0.11 nM | N.C. | 0.051 nM | 9.8 nM | N.C. |  |  | 
FC(F)(F)c1cc2c(N3CCNCC3)cccc2n1Cc1cccs1 [Compound 30, 4-(piperazin-1-yl)-1-(thiophen-2-ylmethyl)-2-(trifluoromethyl)-1H-indole] | 0.33 nM | 0.071 nM | N.C. | 0.65 nM | 5.5 nM | N.C. |  |  | 
FC(F)(F)c1cc2c(N3CCNCC3)cccc2n1Cc1ccsc1 [Compound 31, 4-(piperazin-1-yl)-1-(thiophen-3-ylmethyl)-2-(trifluoromethyl)-1H-indole] | 1.5 nM | 0.11 nM | N.C. | 0.2 nM | 16 nM | N.C. |  |  | 
CN1CCN(c2cccc3c2cc(C(F)(F)F)n3Cc2ccsc2)CC1 [Compound 32, 4-(4-methylpiperazin-1-yl)-1-(thiophen-3-ylmethyl)-2-(trifluoromethyl)-1H-indole] |  | 0.061 nM | N.C. | 0.37 nM |  | N.C. | 2.3 nM | 11 nM | 
CN1CCN(c2cccc3c2cc(C(F)(F)F)n3Cc2cccs2)CC1 [Compound 33, 4-(4-methylpiperazin-1-yl)-1-(thiophen-2-ylmethyl)-2-(trifluoromethyl)-1H-indole] |  | 0.069 nM | N.C. | 0.28 nM |  | N.C. | 0.17 nM | 9.7 nM | 
CC(C)COc1ccc(CNC(=O)N(Cc2ccc(F)cc2)C2CCN(C)CC2)cc1 [pimavanserin] |  |  |  |  |  |  |  |  | no affinity
